The values below come from publication PMC3893826 (Journal of medicinal chemistry, 2010).

The target in test [1] is Human mTORC1 complex (Homo sapiens, UniProt P42345). The test can be described thus: In vitro mTORC1 kinase assay. Format: biochemical.
Test [2] deals with mTOR (Mus musculus, UniProt Q9JLN9). The class given is cell-based.

Structures are written as SMILES.

As a reminder, the IC50 is the point on the concentration scale where inhibition reaches its midpoint. Low readings indicate greater potency, high ones weaker potency. In general, EC50 refers to the concentration giving half of the maximal effect. A high value points to a need for much substance.

Regarding `COCCC(=O)N1CCN(c2ccc(Nc3ccnc4ccc(-c5cnc6ccccc6c5)cc34)cc2C(F)(F)F)CC1` [Compound 16], the concentration for half-maximal inhibition (IC50) stood at 82.6 nM in test [1] and 40 nM in test [2].

For `CC(=O)N1CCN(c2ccc(-n3c(=O)ccc4cnc5ccc(-c6cnc7ccccc7c6)cc5c43)cc2C(F)(F)F)CC1` [Compound 7, 1-(4-(4-acetylpiperazin-1-yl)-3-(trifluoromethyl)phenyl)-9-(quinolin-3-yl)benzo[h][1,6]naphthyridin-2(1H)-one], the EC50 in test [2] was found to be 3 nM. In addition, the “improved mTOR cellular potency compared to screening hit compound 1” value in test [2] (relative to compound 1) was 1000 fold. For the same molecule, the “improvement in cellular potency, 7 versus 8” value in test [2] (relative to compound 8) worked out at 13 fold.
